This is an account of results in patent US20220202841A1, “DERMATOLOGICAL FORMULATIONS FOR TREATMENT OF DERMATITIS” (priority 2020, published 2022).

The test system of the experiment is moderate to severe papular pustular rosacea with perioral dermatitis. Put plainly: Treatment of a subject with the formulation, clinical examination after 1 month. The following applies: same subject, treatment history before the formulation, as reported at first visit. The experiment is classed as in vivo, human. The source says:
The lesions consisted of papules and pimples, was severe in severity, and had been present for months. […] The subject was having a bad “acne” flare up, and stated that their face was itchy and red. The subject had been treated for “acne” for a long time.
The subject was diagnosed with moderate to severe papular pustular rosacea with perioral dermatitis.
The subject was given the formulation of Example 1, and the subject administered it twice daily (AM and PM) and was seen again 1 month later, at which time their condition had improved. The subject's condition at this later examination was recorded in the images in FIGS. 2A to 2C.

With `CC1=C(/C=C/C(C)=C/C=C/C(C)=C/C(=O)O)C(C)(C)CCC1` [tretinoin], the “improvement of "acne" lesions with previously tried treatment” value is “no improvement”.
